# Laboratory results taken from US4873253A, “Phenylalanine derivative and proteinase inhibitor” (Okamoto; Shosuke, priority 1987, dated 1989).
# Counter-ions that a name gives are not always drawn. Like-named read-outs stand apart in the source and are kept apart here.
# Legend:
# bovine thrombin [1] = target: T1, bovine thrombin (Bos taurus, UniProt P00735); experiment: Antithrombin activity: inhibition of fibrin formation (fibrinogen); type: biochemical
# T1 construct: a 0.2 unit/ml bovine thrombin solution
# Description: (i) Determination of inhibition activity against fibrin formation
# An inhibitor sample is dissolved in a 0.18 M borate-physiological salt buffer solution (pH= 7.4) to make the total volume to 500 μl. […] Thus, a coagulation time is determined. The inhibitor concentration I50 (μmol), at which the coagulation time obtained in the absence of the inhibitor is extended twice, is determined.
# bovine trypsin = target: T2, bovine trypsin (Bos taurus, UniProt P00760); experiment: Antitrypsin activity: inhibition of S-2238 decomposition; type: biochemical
# T2 sequence (P00760 24-246): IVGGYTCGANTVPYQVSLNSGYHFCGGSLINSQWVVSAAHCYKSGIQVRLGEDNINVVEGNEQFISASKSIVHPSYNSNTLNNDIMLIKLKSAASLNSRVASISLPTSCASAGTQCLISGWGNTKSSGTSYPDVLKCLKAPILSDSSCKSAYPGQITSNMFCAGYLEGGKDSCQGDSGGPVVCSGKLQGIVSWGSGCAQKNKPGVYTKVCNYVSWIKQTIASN
# Description: Determination of inhibition activity against S-2238 decomposition
# An inhibitor sample is dissolved in a 0.05 M Tris-imidazole buffer solution (pH=8.1) and 125 μl of a 1 mM S-2238 solution is added to make the total volume to 1.20 ml. The mixture is incubated at a temperature of 37° C. for 5 minutes in a constant temperature bath. To this mixture, 0.05 ml of bovine trypsin is added and the absorbance, at 405 nm, of the p-nitroaniline formed per minute is determined at a temperature of 37° C. by using the so-called initial velocity method. Thus, the concentration I50 (μmol) of a inhibitor sample, at which the absorbance is one half (i.e., 1/2) of that obtained in the absence of the inhibitor sample, is determined.
# bovine thrombin [2] = target: T1, bovine thrombin; experiment: Antithrombin activity: inhibition of S-2238 decomposition; type: biochemical; settings: Table 2; substrate S-2238, pH 8.3, 37° C.; read-out: Thrombin S-2238 I50
# Description: An inhibitor sample is dissolved in a 0.05 M Tris-hydrochloric acid buffer solution (pH=8.3) to make a total volume of 400 μl. […] Thus, the concentration I50 (μmol) of the inhibitor sample at which the absorbance is one half (i.e., 1/2) of that obtained in the absence of the inhibitor sample, is determined.
# human plasmin [3] = target: T3, human plasmin (Homo sapiens, UniProt P00747); experiment: Antiplasmin activity: inhibition of fibrin decomposition; type: biochemical; settings: Table 2, pH 7.4, 37° C., read-out: Plasmin Fibrin I50 (concentration doubling fibrin dissolution time)
# Description: (i) Determination of inhibition activity for fibrin decomposition
# An inhibitor sample is dissolved in a 0.18 M borate-physiological salt buffer solution (pH=7.4) to make the total volume to 600 μl. To this buffer solution, 200 μl of a 0.2% bovine fibrinogen, 100 μl of a 0.3 casein unit/ml human plasmin solution, and 100 μl of a 50 unit/ml bovine thrombin solution, all dissolved in the above-mentioned buffer, are added at a temperature of 37° C. in a constant temperature bath. Then, the dissolution time of the fibrin mass formed above is determined.
# human plasma kallikrein = human plasma kallikrein (Homo sapiens, UniProt P03952); experiment: Anti-plasma kallikrein activity: inhibition of S-2302 decomposition; type: biochemical
# Description: Determination of inhibition activity for S-2302 decomposition
# (§1) An inhibitor sample is dissolved in a 0.05 M Tris-hydrochloric acid buffer solution (pH=7.8) to make the total volume to 400 μl. To this solution, 50 μl of a 2 mM S-2302 solution is added and the mixture is incubated at a temperature of 37° C. for 5 minutes in a constant temperature bath. Then, 50 μl of a 0.12 unit/ml human plasma kallikrein is added and the mixture is incubated at a temperature of 37° C. for 5 minutes. Thereafter, 50 μl of 50% acetic acid is added to terminate the reaction. The absorbance of the p-nitroaniline formed in the reaction mixture is measured at 405 nm. Thus, the concentration I50 (μmol) of the inhibitor sample, at which the absorbance is one half (i.e., 1/2) of that obtained in the absence of the inhibitor sample, is determined.
# human plasmin [4] = target: T3, human plasmin; experiment: Antiplasmin activity: inhibition of S-2251 decomposition; type: biochemical; settings: Table 2; substrate S-2251, pH 7.4, 37° C.
# Description: An inhibitor sample is dissolved in a 0.05 M Tris-hydrochloric acid buffer solution (pH=7.4) to make the total volume to 400 μl. […] Then, 50 μl of a 0.2 casein unit/ml human plasmin is added and the mixture is incubated at a temperature of 37° C. for 4 minutes. Thereafter, the reaction is stopped by adding 50 μl of 50% acetic acid.
# Thus, the concentration I50 (μmol) of the inhibitor sample, at which the absorbance is one half (i.e., 1/2) of that obtained in the absence of the inhibitor, is determined.
# human urokinase = human urokinase (Homo sapiens, UniProt P00749); experiment: biochemical
# Description: Determination of inhibition activity for S-2444 decomposition
# as §1, with “solution (pH=8.8)” for “solution (pH=7.8)”, “a 1” for “a 2”, “mM S-2444” for “mM S-2302”, “a 500” for “a 0.12”, “human urokinase” for “human plasma kallikrein”
# [5] = background statement; cited from earlier work
# [6] = background statement; cited from earlier work; remark: listed apart in the source
# [7] = background statement; cited from earlier work; remark: listed apart in the source
# [8] = background statement; cited from earlier work; remark: listed apart in the source
# [9] = Table 2, bovine fibrinogen, pH 7.4, 37° C., read-out: Thrombin Fibrinogen I50 (concentration doubling coagulation time)
# [10] = Table 2, substrate S-2238, pH 8.1, 37° C., read-out: Trypsin S-2238 I50
# [11] = Table 2, substrate S-2302, pH 7.8, 37° C., read-out: Plasma Kallikrein S-2302 I50
# [12] = Table 2, substrate S-2444, pH 8.8, 37° C., read-out: Urokinase S-2444 I50
# T3 sequence (P00747 581-810 limits assumed): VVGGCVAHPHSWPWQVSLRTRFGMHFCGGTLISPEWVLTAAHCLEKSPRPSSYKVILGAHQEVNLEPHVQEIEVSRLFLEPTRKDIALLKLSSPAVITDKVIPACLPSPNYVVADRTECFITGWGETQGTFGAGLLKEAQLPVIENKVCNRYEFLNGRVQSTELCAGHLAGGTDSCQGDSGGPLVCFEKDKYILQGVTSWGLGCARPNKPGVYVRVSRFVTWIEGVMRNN
# T3 sequence (P00747 97-580 limits assumed): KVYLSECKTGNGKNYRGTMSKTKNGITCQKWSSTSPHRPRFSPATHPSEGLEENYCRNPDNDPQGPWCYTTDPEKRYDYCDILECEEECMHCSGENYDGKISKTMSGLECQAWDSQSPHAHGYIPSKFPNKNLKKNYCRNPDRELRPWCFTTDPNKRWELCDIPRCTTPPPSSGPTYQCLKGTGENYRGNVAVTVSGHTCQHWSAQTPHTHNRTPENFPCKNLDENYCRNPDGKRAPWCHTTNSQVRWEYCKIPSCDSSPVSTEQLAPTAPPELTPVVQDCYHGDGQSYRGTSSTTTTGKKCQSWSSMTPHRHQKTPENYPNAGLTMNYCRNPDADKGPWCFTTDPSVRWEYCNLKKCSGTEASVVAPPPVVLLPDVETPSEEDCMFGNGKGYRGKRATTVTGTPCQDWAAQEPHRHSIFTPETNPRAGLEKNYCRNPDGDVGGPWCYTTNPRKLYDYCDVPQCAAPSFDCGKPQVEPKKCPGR
# human plasma kallikrein, sequence (P03952 391-638 limits assumed): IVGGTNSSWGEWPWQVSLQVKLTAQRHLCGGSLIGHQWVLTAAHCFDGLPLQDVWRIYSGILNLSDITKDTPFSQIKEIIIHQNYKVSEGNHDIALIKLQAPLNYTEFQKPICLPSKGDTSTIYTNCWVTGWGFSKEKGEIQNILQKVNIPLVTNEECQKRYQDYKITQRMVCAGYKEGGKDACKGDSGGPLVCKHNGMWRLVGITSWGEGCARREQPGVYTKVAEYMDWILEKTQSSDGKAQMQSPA
# human plasma kallikrein, sequence (P03952 20-390 limits assumed): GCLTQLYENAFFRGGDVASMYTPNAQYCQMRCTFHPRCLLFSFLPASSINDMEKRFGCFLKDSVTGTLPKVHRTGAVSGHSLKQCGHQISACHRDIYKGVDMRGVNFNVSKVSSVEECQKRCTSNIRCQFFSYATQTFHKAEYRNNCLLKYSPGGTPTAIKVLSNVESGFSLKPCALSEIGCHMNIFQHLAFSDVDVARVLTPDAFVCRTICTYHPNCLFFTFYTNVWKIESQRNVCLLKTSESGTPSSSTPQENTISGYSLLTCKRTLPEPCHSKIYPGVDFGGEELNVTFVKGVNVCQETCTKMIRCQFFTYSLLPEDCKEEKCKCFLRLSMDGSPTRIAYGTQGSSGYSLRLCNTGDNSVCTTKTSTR
IC50 (bovine thrombin [1]; [9]) [µM],IC50 (bovine trypsin; [10]) [µM],IC50 (bovine thrombin [2]) [µM],IC50 (human plasmin [3]) [µM],IC50 (human plasma kallikrein; [11]) [µM],IC50 (human plasmin [4]) [µM],IC50 (human urokinase; [12]) [µM],Compound,also measured
> 500,2.3,> 1000,,,,,"NC[C@H]1CC[C@H](C(=O)NC(Cc2cccc(Oc3ccccc3)c2)C(=O)Nc2ccnc(Cl)c2)CC1 (mixture of isomers) [Compound 9, N-(trans-4-aminomethylcylohexylcarbonyl)-3-phenoxy-DL-phenylalanine 4-(2-chloro)pyridylamide dihydrochloride]",
> 100,2.3,> 100,14,0.38,19,110,"CC(=O)c1ccc(NC(=O)C(Cc2cccc(Oc3ccccc3)c2)NC(=O)[C@H]2CC[C@H](CN)CC2)cc1 (mixture of isomers) [Compound 2, N-(trans-4-aminomethylcyclohexylcarbonyl)-3-phenoxy-DL-phenylalanine 4-acetylanilide hydrochloride]",
> 400,8.8,> 100,24,0.83,65,87,"NC[C@H]1CC[C@H](C(=O)NC(Cc2cccc(Oc3ccccc3)c2)C(=O)Nc2ccncc2)CC1 (mixture of isomers) [Compound 8, N-(trans-4-aminomethylcyclohexylcarbonyl)-3-phenoxy-DL-phenylalanine 4-pyridylamide dihydrochloride]",
,> 150,> 1000,,600,,> 1000,"NC[C@H]1CC[C@H](C(=O)NC(Cc2cccc(Oc3ccccc3)c2)C(=O)O)CC1 (mixture of isomers) [Compound 58, N-(trans-4-aminomethylcyclohexylcarbonyl)-3-phenoxy-DL-phenylalanine]",
> 1000,87,,260,> 1000,> 1000,> 1000,COCCCNC(=O)C(Cc1cccc(C(F)(F)F)c1)NC(=O)[C@H]1CC[C@H](CN)CC1 (stereo partly shown) [Compound 28],
> 100,> 150,,> 100,> 100,160,> 500,CCOC(=O)C1CCN(C(=O)C(Cc2cccc(Oc3ccccc3)c2)NC(=O)[C@H]2CC[C@H](CNC(=N)N)CC2)CC1 (stereo partly shown) [Compound 31],
> 25,15,,> 25,2.2,120,100,CC(=O)c1ccc(NC(=O)C(Cc2cccc(Oc3ccccc3)c2)NC(=O)c2ccc(NC(=N)N)cc2)cc1 (stereo not shown) [Compound 32],
,42,,> 25,4.5,> 100,> 200,CCOC(=O)c1cccc(NC(=O)C(Cc2cccc(Oc3ccccc3)c2)NC(=O)c2ccc(NC(=N)N)cc2)c1 (stereo not shown) [Compound 33],IC50 (bovine thrombin [1]): > 25 µM
,,,,,,,"N=C(N)c1ccc2cc(OC(=O)c3ccc(N=C(N)N)cc3)ccc2c1 [FUT-175, reference compound]",LD50 value [5]: small; IC50 (bovine trypsin): 0.27 µM; half life in vivo [6]: short; IC50 (human plasma kallikrein): 0.076 µM; hypotensive action [7]: large; IC50 (human urokinase): 0.013 µM
,,,,,,,Aprotinin,side effects when administered to humans [8]: side effects such as allergic reactions
